pIC50: −log10 of the molar value. Values joined by “and” are separate entries in the source; they are usually repeats but may differ in a detail not shown here. Equal values may be shown once.

The results in this text go back to article PMC10249896, “AI-Assisted chemical probe discovery for the understudied Calcium-Calmodulin Dependent Kinase, PNCK” (PLOS Computational Biology, 2023).

The target in this series is T1, PNCK Nano-luciferase fusion (Homo sapiens, UniProt Q6P2M8).
T1 construct: host or cells: HEK293
T1 sequence (Q6P2M8 whole entry, the tested form may be a part): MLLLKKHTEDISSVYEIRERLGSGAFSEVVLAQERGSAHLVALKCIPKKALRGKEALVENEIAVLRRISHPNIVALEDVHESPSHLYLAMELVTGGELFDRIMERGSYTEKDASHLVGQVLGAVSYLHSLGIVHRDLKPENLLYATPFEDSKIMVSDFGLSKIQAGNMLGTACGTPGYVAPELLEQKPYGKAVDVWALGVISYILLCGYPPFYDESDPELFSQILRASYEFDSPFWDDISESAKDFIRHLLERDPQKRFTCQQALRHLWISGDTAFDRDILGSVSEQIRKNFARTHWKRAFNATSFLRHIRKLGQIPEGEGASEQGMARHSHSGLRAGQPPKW
Briefly: NanoBRET Target Engagement Intracellular Kinase Assay, cell-based PNCK binding screen and dose response in HEK293 cells. To be noted: for inhibition at 1 µM: compound 1uM, read-out: Avg. Normalized % Inhibition, 1uM, Nanobret; for inhibition at 1 µM / inhibition at 10 µM / pIC50: HEK293; for inhibition at 1 µM / inhibition at 10 µM: K10 tracer 1uM, normalized to staurosporine and DMSO; for inhibition at 10 µM: compound 10uM, read-out: Avg. Normalized % Inhibition, 10uM, Nanobret; for pIC50: 8-point concentration-response; for NanoBRET binding, result in words: cell-based screen / comparison with parent hit. The method, then: The NanoBRET Target Engagement Intracellular Kinase Assay (Promega N2520) is a cell-based binding screen which reads loss of BRET signal as a result of target binding. A PNCK Nano-luciferase fusion vector plasmid was generated custom by Promega. The K-10 tracer was used for the assay, as determined by Promega. The plasmid was maxiprepped by Genewiz for use in all future assays. HEK293 cells were seeded in a T175 flask in DMEM with 10% FBS. The following day, cells were counted to 10,000, resuspended in assay media (Optimem with no phenol red, 1% FBS). Plasmid and transfection reagent (Fugene HD, Promega E2311) were added to the mixture and cells were seeded in a white 96-well plate. After 20–24 hours, media was changed, and the assay proceeded according to protocol. K10 tracer was added at the recommended concentration of 1uM while compounds were initially screened at both 10uM and 1uM. Cells incubated with compound at 37 degrees Celsius for a maximum of 2 hours before the plate was read using Clariostar Plus. Data was normalized to Staurosporine and DMSO controls. For compounds selected for further analysis, dose response curves were generated using the same testing protocol but at 8 different concentrations: 24uM, 12uM, 6uM, 3uM, 1.5uM, .75uM 0.375uM and 0.1875uM. UM195 was tested with concentrations from 12uM to 0.09375. Similarly, compounds from the analog by catalog analysis were tested at concentrations from 24uM to 0.1875uM.
Data analysis of ADP Kinase Glo results were carried out per the manufacturer’s instructions. Results were represented as a percent decrease in activity. Data was normalized to staurosporine (positive control) as 100% decrease and DMSO (negative control) as a 0% decrease. Data for NanoBRET was analyzed by dividing the acceptor by the donor emission and […] to obtain raw millibret units (mBU). Background was subtracted using control emission averages. Data was normalized to positive and negative controls of staurosporine and DMSO. Concentration-response curves were plotted in GraphPad Prism 8 and IC50s were extrapolated using non-linear fit with concentrations transformed to logarithmic scale. Baseline was held constant and represented the average mBU of staurosporine controls while the top was constrained to represent the average mBU of DMSO controls. Error bars on dose-response curves represent standard deviations.

As to `Cc1nc(N2CCC[C@H]3C(=O)NC[C@H]32)c2c(C)c(C)sc2n1` [UM_194], the inhibition at 1 µM was 1.43% and the inhibition at 10 µM is 27.6%.

`COc1cccc(-n2nnc3c(=O)n(CC(=O)N4CCCC4)cnc32)c1` [UM_230]: the inhibition at 1 µM was 21.2% and the inhibition at 10 µM turned out to be 55.1%.

For the molecule `O=c1[nH]c(CSc2ccc3ccccc3n2)nc2ccc(Cl)cc12` [UM_210, 6-chloro-2-[(quinolin-2-ylsulfanyl)methyl]-3,4-dihydroquinazolin-4-one], the pIC50 is 5.09, the inhibition at 1 µM is 41.2% and the inhibition at 10 µM is 98.5%. The “Dose-Response Curve Data (NanoBRET signal, replicates)” value (“Dose-Response Curve Data” below) (Concentration 1.20E-05 M) is 7.35 and 5.53 and 7.51 and 6.90. Moreover, under “Concentration 1.50E-06 M”, the “Dose-Response Curve Data” value is 8.14 and 8.22 and 8.79 and 8.09. In addition, the “Dose-Response Curve Data” value (Concentration 1.88E-07 M) was 8.61 and 9.43 and 9.50 and 8.74. Further, under “Concentration 2.40E-05 M”, the “Dose-Response Curve Data” value was 4.79 and 5.28 and 5.02 and 4.59. Further, the “Dose-Response Curve Data” value (Concentration 3.00E-06 M) is 7.91 and 7.57 and 6.47 and 7.46. Further, the “Dose-Response Curve Data” value (Concentration 3.75E-07 M) was 9.79 and 9.21 and 8.99 and 8.71. Also, the “Dose-Response Curve Data” value (Concentration 6.00E-06 M) was 7.06 and 7.86 and 6.98 and 6.97. Besides, the “Dose-Response Curve Data” value (Concentration 7.50E-07 M) was 8.34 and 8.97 and 8.05 and 9.09.

On to `O=C(O)c1ccc(-c2nc(O)c3c4c(sc3n2)CCCC4)cc1` [UM_233], for which the inhibition at 1 µM was 7.37% and the inhibition at 10 µM is 14.2%.

In the case of `O=C(COc1ccc2c3c(c(=O)oc2c1)CCCCC3)N1CCc2ccccc21` [UM_213, 3-[2-(2,3-dihydro-1H-indol-1-yl)-2-oxoethoxy]-6H,7H,8H,9H,10H,11H-cyclohepta [c]chromen-6-one], the pIC50 was 5.02, the inhibition at 1 µM came out at 56.7% and the inhibition at 10 µM worked out at 91.5%. Besides, the “Dose-Response Curve Data” value (Concentration 1.20E-05 M) is 7.35 and 7.43 (2×). In addition, the “Dose-Response Curve Data” value (Concentration 1.50E-06 M) was 8.59 and 8.87 and 8.44. Under “Concentration 1.88E-07 M”, the “Dose-Response Curve Data” value was 8.66 and 8.93 and 8.52. For the same molecule, the “Dose-Response Curve Data” value (Concentration 2.40E-05 M) was 6.31 and 6.47 and 6.34. Also, the “Dose-Response Curve Data” value (Concentration 3.00E-06 M) was 8.12 and 8.73 and 8.41. Further, where the note is “Concentration 3.75E-07 M”, the “Dose-Response Curve Data” value is 8.92 and 8.51 and 8.71. For the same molecule, the “Dose-Response Curve Data” value (Concentration 6.00E-06 M) was 8.04 and 8.33 and 8.32. For the same molecule, the “Dose-Response Curve Data” value (Concentration 7.50E-07 M) is 8.68 and 8.62 and 8.88.

For the molecule `c1ccc2c(-c3nnc(Sc4cnccn4)o3)cccc2c1` [UM_265], the inhibition at 1 µM is 21.5% and the inhibition at 10 µM was 63.5%.

Take `COc1ccc2c(O)c(C(=O)N(C)Cc3c(C)noc3C)cnc2c1` [UM_200]: the inhibition at 1 µM was 0% and the inhibition at 10 µM worked out at 17.7%.

Consider `O=C(O)c1cccnc1SCCCN1C(=O)c2cccc3cccc(c23)C1=O` [UM_216], for which the inhibition at 1 µM was 2.34% and the inhibition at 10 µM came to 25.4%.

In the case of `N#Cc1cnc(Sc2nnc(C3CCCCC3)o2)cn1` [UM_256], the inhibition at 1 µM came out at 2.86% and the inhibition at 10 µM came out at 51%.

On to `COc1cccc(-c2nc3c(c(=O)[nH]2)Cc2cc(Br)ccc2O3)c1O` [UM_229], for which the inhibition at 1 µM came to 27.5% and the inhibition at 10 µM worked out at 54%.

Regarding `O=C(c1c(F)cc(F)cc1F)C1CCN(C(=O)c2ccnnc2)CC1` [UM_212], the inhibition at 1 µM is 0% and the inhibition at 10 µM came to 49.9%.

As for `O=C1CCCc2c1cnc1nc(N3CCCCC3)nc(O)c21` [UM_232], the inhibition at 1 µM worked out at 1.49% and the inhibition at 10 µM amounted to 10.9%.

On to `CC1CCc2c(sc(NC(=O)c3ccc([N+](=O)[O-])s3)c2C(N)=O)C1` (stereo not drawn) [UM_250], for which the inhibition at 1 µM is 0% and the inhibition at 10 µM is 0%.

Take `CN(CC(=O)NC(C)(C)C)Cn1nc2c3c(cccc31)C(=O)c1ccccc1-2` [UM_224]: the inhibition at 1 µM is 18% and the inhibition at 10 µM is 33.3%.

`O=c1[nH]c(CSc2ccc3ccccc3n2)nc2ccccc12` [UM_281]: the inhibition at 1 µM turned out to be 26.6% and the inhibition at 10 µM is 54.5%.

In the case of `Cc1nc2c(c(=O)[nH]1)CCN(Cc1cc3ccccc3n(C)c1=O)CC2` [UM_231], the inhibition at 1 µM came to 25.9% and the inhibition at 10 µM is 46.3%.

Turning to `Cn1cnn(CN2CCN(c3ccc(O)cc3)CC2)c1=S` [UM_199], the inhibition at 1 µM came out at 0% and the inhibition at 10 µM was 16.9%.

In the case of `COc1ccc2[nH]c(SCc3cc(=O)n4c(C)cccc4n3)nc2c1` [UM_196], the inhibition at 1 µM was 3.82% and the inhibition at 10 µM came out at 30.5%.

As to `O=C(O)CCc1nnc(SCc2c(Cl)cccc2Cl)[nH]c1=O` [UM_193], the inhibition at 1 µM amounted to 0% and the inhibition at 10 µM turned out to be 0%. In addition, the cell permeability entry (stated on testing in NanoBRET assay) was “not cell permeable”.

Turning to `Clc1nc(-c2cccnc2)nc2sc3c(c12)CCCC3` [UM_209], the inhibition at 1 µM stood at 5.53% and the inhibition at 10 µM stood at 55.3%.

For `Cc1nnc(SCCCn2c(=O)[nH]c3ccccc32)n1N` [UM_275], the inhibition at 1 µM was determined as 12% and the inhibition at 10 µM was 52.2%.

Take `N#Cc1cnc(Sc2nnc(-c3cccc4ccccc34)o2)cn1` [UM_195, 5-[5-(naphthalen-1-yl)-1,3,4-oxadiazol-2-yl]sulfanylpyrazine-2-carbonitrile]: the pIC50 was 5.47, the inhibition at 1 µM came to 22.1% and the inhibition at 10 µM was found to be 100%. Also, the “Dose-Response Curve Data” value (Concentration 1.20E-05 M) is 5.32 and 5.59 and 5.20. Further, the “Dose-Response Curve Data” value (Concentration 1.50E-06 M) was 7.80 and 7.94 and 7.90. In addition, under “Concentration 1.88E-07 M”, the “Dose-Response Curve Data” value was 9.08 and 9.29 and 8.92. Also, the “Dose-Response Curve Data” value (Concentration 3.00E-06 M) is 7.45 and 6.56 and 7.25. In addition, the “Dose-Response Curve Data” value (Concentration 3.75E-07 M) is 9.32 and 8.97 and 9.18. The “Dose-Response Curve Data” value (Concentration 6.00E-06 M) is 5.79 and 6.12 (2×). Also, for the setting “Concentration 7.50E-07 M”, the “Dose-Response Curve Data” value is 8.84 and 8.55 and 8.27. Where the note is “Concentration 9.38E-08 M”, the “Dose-Response Curve Data” value was 9.33 and 9.39 and 8.87.

Consider `O=c1[nH]c(CSc2ncccn2)nc2ccc(Cl)cc12` [UM_278], for which the “NanoBRET binding, result in words” value is given as “did not demonstrate significantly improved binding”; the inhibition at 1 µM is 10.9%; the inhibition at 10 µM is 23.6%.

`O=C1CCCN1CC(O)COc1ccc2c3c(c(=O)oc2c1)CCCCC3` (stereo not drawn) [UM_257]: the inhibition at 1 µM was 15.2% and the inhibition at 10 µM was 48.6%.

For the molecule `NC(=O)Cn1cnc2cc(-c3ccc(Cl)cc3)sc2c1=O` [UM_219], the inhibition at 1 µM is 0.98% and the inhibition at 10 µM worked out at 31.1%.

`Cn1c(=O)n(C(N)=O)c(=O)c2c1nc1n2CCCN1c1ccc(F)cc1` [UM_223]: the inhibition at 1 µM is 17% and the inhibition at 10 µM turned out to be 44.6%.

Regarding `Cc1ccnc2nc(C(=O)OCC(=O)c3ccc(Cl)cc3Cl)nn12` [UM_198], the inhibition at 1 µM came to 2.17% and the inhibition at 10 µM stood at 22.7%.

With `O=c1[nH]c(-c2ccc(-n3cccn3)nc2)nc2sc3ccccc3c12` [UM_208], the inhibition at 1 µM amounted to 5.94% and the inhibition at 10 µM is 87.8%.

For the molecule `Cc1nc2c(sc3nc(N4CCOCC4)c4c(c32)CC(C)(C)OC4)c(=O)o1` [UM_225], the inhibition at 1 µM was 21.7% and the inhibition at 10 µM was 47.7%.

Consider `O=c1[nH]c(CSc2nc3ccccc3o2)nc2ccc(Cl)cc12` [UM_280], for which the pIC50 was 4.83; the “NanoBRET binding, result in words” value is “did not demonstrate significantly improved binding”; the inhibition at 1 µM is 33.4%; the inhibition at 10 µM was 74.7%.

As to `NC(=O)Nc1cccc(C(=O)Nc2cc3c(cc2Br)OCCO3)c1` [UM_222], the inhibition at 1 µM was 28% and the inhibition at 10 µM is 71.1%.

Take `Cc1noc2ncnc(N3CCC(n4c(C)nc5ccccc54)CC3)c12` [UM_215]: the inhibition at 1 µM came to 0% and the inhibition at 10 µM came out at 19.4%.

Regarding `Cc1cc(C)n2nc(SCc3nc(-c4ccccc4)no3)nc2n1` [UM_217], the inhibition at 1 µM is 10.5% and the inhibition at 10 µM came to 49.3%.

`Clc1nc(CN2CCCCC2)nc2sc3c(c12)CCC3` [UM_220]: the inhibition at 1 µM is 1.68% and the inhibition at 10 µM is 27.1%.
